Calls of active or inactive are those of the source. The calls are words filed in the database; no cut-off is given here.
Tests used:
[1] = tested on: J774.A1; assay: Inhibition of ASC colocalization in LPS/nigericin stimulated mouse J774.A1 cells; assay type: functional, cell-based
[2] = tested on: THP-1; assay: Effect on cleaved caspase-4 expression in human THP-1 cells at 2 uM pretreated with pam3CSK4 for 3 hrs followed by compound addition for 30 mins prior to cytosolic LPS stimulation for 16 hrs by ELISA; assay type: functional, cell-based; settings: time 16.5 hrs
[3] = target: T1, Caspase-7 (Mus musculus) (UniProt P97864); assay: Inhibition of cisplatin induced caspase-7 activation in mouse J774.A1 cells at 2 uM preincubated for 30 mins followed by cisplatin addition and incubated overnight; assay type: cell-based
T1 sequence (whole entry): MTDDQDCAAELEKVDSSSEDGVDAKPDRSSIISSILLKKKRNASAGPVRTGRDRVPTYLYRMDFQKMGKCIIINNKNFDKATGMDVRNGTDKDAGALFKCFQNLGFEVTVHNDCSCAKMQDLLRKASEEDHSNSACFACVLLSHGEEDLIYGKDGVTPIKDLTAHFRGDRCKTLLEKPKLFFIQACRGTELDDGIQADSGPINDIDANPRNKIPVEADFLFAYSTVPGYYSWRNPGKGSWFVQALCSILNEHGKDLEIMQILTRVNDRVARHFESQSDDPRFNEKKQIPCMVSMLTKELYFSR

[4] = target: NACHT, LRR and PYD domains-containing protein 3 (Mus musculus) (UniProt Q8R4B8); assay: Inhibition of NLRP3 inflammasome activation in LPS primed Casp1 knockout mouse BMDM cells transfected with caspase-1 C397A mutant assessed as reduction in IL-1beta release at 2 uM preincubated for 30 mins followed by nigericin stimulation; assay type: cell-based
[5] = tested on: THP-1; assay: Inhibition of p20 fragment of caspase 1 protein expression in LPS/ATP stimulated human THP-1 cells supernatant by Western blotting analysis; assay type: functional, cell-based
[6] = tested on: HEK293T; assay: Inhibition of recombinant caspae-1 C285A/C397A double mutant (unknown origin) to GSDMD (unknown origin) interaction expressed in HEK293T cells; assay type: cell-based; settings: Homo sapiens
[7] = tested on: THP-1; assay: Inhibition of p20 fragment of IL-1beta protein expression in LPS/nigericin stimulated human THP-1 cells supernatant at 0.5 to 2 uM by Western blotting analysis; assay type: functional, cell-based; settings: dose 0.5-2 µM
[8] = tested on: J774.A1; assay: Inhibition of pyroptosis in mouse J774.A1 cells assessed as reduction in LDH release at 0.5 to 2 uM pretreated with LPS for 3 hrs followed by compound addition in presence of nigericin; assay type: functional, cell-based; settings: dose 0.5-2 µM
[9] = tested on: Caspase-1 (Homo sapiens), P29466 [C169A]; assay: Binding affinity to recombinant caspase-1 C169A mutant (unknown origin) at 2 uM by SDS-PAGE analysis
[10] = tested on: J774.A1; assay: Inhibition of pyroptosis in mouse J774.A1 cells assessed as reduction in caspase-1 to GSDMD interaction at 1 uM pretreated with LPS for 3 hrs followed by compound addition in presence of nigericin by immunoprecipitation analysis; assay type: functional, cell-based
[11] = species: Mus musculus; assay: Inhibition of pain perception in MSU/C18:0 free fatty acid induced wild type mouse measured upto 24 hrs; assay type: functional, organism-based
[12] = tested on: THP-1; assay: Effect on pro-1L-1beta protein expression in LPS/ATP stimulated human THP-1 cells supernatant by Western blotting analysis; assay type: functional, cell-based
[13] = tested on: Caspase-1 (Homo sapiens), P29466 [C285A]; assay: Binding affinity to recombinant caspase-1 C285A mutant (unknown origin) at 2 uM by SDS-PAGE analysis
[14] = tested on: HEK293T; assay: Inhibition of recombinant caspae-1 C244A mutant (unknown origin) to GSDMD (unknown origin) interaction expressed in HEK293T cells; assay type: cell-based; settings: Homo sapiens
[15] = tested on: HEK293T; assay: Inhibition of recombinant wild type caspae-1 (unknown origin) to GSDMD (unknown origin) interaction expressed in HEK293T cells; assay type: cell-based; settings: Homo sapiens
[16] = target: NACHT, LRR and PYD domains-containing protein 3 (Mus musculus) (UniProt Q8R4B8); assay: Inhibition of NLRP3 inflammasome activation in mouse BMDMs assessed as reduction in IL-1beta production at 0.5 to 2 uM pretreated with pam3CSK4 for 3 hrs followed by compound addition for 30 mins prior to cytosolic LPS stimulation for 16 hrs by ELISA; assay type: cell-based; settings: BMDM, dose 0.5-2 µM, time 16.5 hrs
[17] = target: T2, Caspase-1 (Mus musculus) (UniProt P29452); assay: Binding affinity to caspase-1 in LPS-induced mouse J774.A1 cells assessed as reduction in IL-1beta level at 0.5 uM preincubated with compound followed by nigericin addition; assay type: cell-based; settings: time 3-24 hrs, TDE = time-dependent effect
T2 sequence (whole entry): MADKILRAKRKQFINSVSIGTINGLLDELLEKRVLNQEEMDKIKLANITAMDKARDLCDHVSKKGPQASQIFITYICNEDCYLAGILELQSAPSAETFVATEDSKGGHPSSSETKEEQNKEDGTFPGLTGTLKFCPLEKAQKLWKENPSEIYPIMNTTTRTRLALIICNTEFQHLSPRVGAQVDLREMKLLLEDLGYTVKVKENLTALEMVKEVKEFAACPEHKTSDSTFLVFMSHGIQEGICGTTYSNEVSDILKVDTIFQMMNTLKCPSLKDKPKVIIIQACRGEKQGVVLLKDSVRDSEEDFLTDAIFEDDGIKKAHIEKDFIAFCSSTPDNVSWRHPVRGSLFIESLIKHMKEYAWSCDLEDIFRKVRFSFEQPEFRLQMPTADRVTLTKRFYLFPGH

Sequence of NACHT, LRR and PYD domains-containing protein 3 (Mus musculus) (Q8R4B8 whole entry, the tested form may be a part): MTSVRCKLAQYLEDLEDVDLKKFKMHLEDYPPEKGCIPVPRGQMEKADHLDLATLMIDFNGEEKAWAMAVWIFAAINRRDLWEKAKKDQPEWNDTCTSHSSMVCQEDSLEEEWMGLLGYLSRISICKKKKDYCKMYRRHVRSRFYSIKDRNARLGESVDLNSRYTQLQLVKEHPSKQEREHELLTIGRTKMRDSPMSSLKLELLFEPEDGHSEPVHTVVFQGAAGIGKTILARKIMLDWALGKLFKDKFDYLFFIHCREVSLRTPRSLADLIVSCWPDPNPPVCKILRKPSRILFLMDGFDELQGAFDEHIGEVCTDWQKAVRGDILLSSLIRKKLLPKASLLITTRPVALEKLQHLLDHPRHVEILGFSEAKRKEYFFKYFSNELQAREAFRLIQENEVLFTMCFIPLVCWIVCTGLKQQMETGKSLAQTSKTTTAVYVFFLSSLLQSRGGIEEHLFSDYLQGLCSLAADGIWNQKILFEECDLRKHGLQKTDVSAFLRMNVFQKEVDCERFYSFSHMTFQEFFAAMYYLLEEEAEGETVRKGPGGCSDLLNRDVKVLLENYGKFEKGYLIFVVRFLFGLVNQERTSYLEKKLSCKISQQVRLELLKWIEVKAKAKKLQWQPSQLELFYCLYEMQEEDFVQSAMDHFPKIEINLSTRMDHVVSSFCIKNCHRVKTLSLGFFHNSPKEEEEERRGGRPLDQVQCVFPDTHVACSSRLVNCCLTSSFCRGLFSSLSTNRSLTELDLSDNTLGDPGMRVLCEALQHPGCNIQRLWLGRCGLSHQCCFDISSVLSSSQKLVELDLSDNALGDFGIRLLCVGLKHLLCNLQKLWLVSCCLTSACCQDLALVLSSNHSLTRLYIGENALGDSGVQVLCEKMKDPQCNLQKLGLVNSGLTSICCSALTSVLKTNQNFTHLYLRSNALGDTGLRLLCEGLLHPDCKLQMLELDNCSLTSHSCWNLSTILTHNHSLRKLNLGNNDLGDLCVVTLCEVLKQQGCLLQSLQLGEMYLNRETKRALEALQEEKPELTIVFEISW
Sequence of Caspase-1 (Homo sapiens), P29466 [C169A] (P29466 whole entry C169A): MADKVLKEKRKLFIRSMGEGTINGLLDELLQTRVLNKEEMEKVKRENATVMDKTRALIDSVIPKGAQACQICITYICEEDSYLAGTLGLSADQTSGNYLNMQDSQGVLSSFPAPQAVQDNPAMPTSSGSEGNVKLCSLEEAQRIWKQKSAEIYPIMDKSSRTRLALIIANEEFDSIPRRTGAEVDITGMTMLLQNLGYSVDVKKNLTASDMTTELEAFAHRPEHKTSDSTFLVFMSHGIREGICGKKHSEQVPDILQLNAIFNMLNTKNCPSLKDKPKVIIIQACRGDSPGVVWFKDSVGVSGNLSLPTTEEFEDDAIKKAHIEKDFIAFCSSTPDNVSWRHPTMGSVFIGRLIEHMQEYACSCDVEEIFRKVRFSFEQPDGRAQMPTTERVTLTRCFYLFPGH
Sequence of Caspase-1 (Homo sapiens), P29466 [C285A] (P29466 whole entry C285A): as the sequence (P29466 whole entry C169A) above, with A169C, C285A counted along it

COc1ccc2c(c1)[C@]1(C=C[C@H](N=C=S)C[C@H]1C(=O)OC(C)(C)C)C(=O)N2C(=O)OCc1ccccc1
inhibition [1]: Active
Activity [2]: inactive
inhibition [3]: inactive
inhibition [4]: inactive
inhibition [5]: Active
inhibition [6]: inactive
inhibition [7]: Active
inhibition [8]: Active
Activity [9]: Active
inhibition [10]: Active
inhibition [11]: Active
Activity [12]: inactive
Activity [13]: inactive
inhibition [14]: Active
inhibition [15]: Active
inhibition [16]: Active
Activity [17]: Tde
